Assay results from PubChem BioAssay AID463206 (Broad Institute, 2010).
Calls of active or inactive are those of the source.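 How the source made its calls: active means caspase luminescence falls with dose and the half-maximal concentration AC50 from the fitted curve is at or below a set limit; inconclusive means flat fit at 30 to 70% signal loss, or invalid fit; inactive means AC50 above the limit, or signal rises instead.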

System: INS-1E cytokine-induced caspase-3/7, Caspase-Glo luminescence, 48 h
Assay: inhibitors of cytokine-induced caspase-3/7 activity, dose response, orthogonal assay for beta-cell apoptosis protection project, INS-1E rat cells, luminescence (AID 463206)

Compound | AC50
COc1cc(OC)c2cc(C(=O)N/N=C/c3cccc(OC)c3O)[nH]c2c1 | > 26 µM (inactive)
Cc1ccc(S(=O)(=O)Nc2ccccc2C(=O)Nc2nc(-c3ccc(F)cc3)cs2)cc1 | > 26 µM (inactive)
COc1ccc(C(=O)N/N=C/c2ccccc2OC(=O)c2ccccc2)cc1 | > 26 µM (inactive)
CCN1CCN(Cc2ccc(NC(=O)c3cc(NC(=O)c4cncc(-c5ccc(C#N)cc5)c4)cc(OC)c3)cc2C(F)(F)F)CC1 | > 26 µM (inactive)
O=C(Oc1c(Cl)cc(Cl)c2cccnc12)c1cccs1 | > 12 µM (inactive)
COc1cccc(N=Nc2ccc(O)c3ncccc23)c1 | > 26 µM (inactive)
O=C(Nc1ccc(Br)c(C(F)(F)F)c1)c1ccc(C(F)(F)F)cc1 | > 26 µM (inactive)
Cc1cccc(N2C(=S)N=C(Nc3c(C)cccc3C)C23CCOC(C)(C)C3)c1 (configuration not stated) | > 26 µM (inactive)
CCCCCn1c(=O)c(C(=O)Nc2nc3ccccc3[nH]2)c(O)c2ccccc21 | > 26 µM (inactive)
COc1ccccc1N(CC(=O)N/N=C/c1c(O)ccc2ccccc12)S(C)(=O)=O | > 26 µM (inactive)
COc1cc(CN2CCN(c3cc(C)ccc3C)CC2)ccc1O | > 26 µM (inactive)
Oc1ccc(N=Nc2nccs2)c(O)c1 | > 26 µM (inactive)
COc1cc(/C=N/N=C(N)N)ccc1OCc1ccc(Cl)cc1 | > 26 µM (inactive)
Cc1ccc(N=Nc2c(O)ccc3n[nH]nc23)cc1 | > 26 µM (inactive)
CC(=O)NC(c1cc(Cl)c2cccnc2c1O)C(C)C (configuration not stated) | > 26 µM (inactive)
Cc1ccc(NC(=O)c2ccccc2NS(=O)(=O)c2ccc(Cl)s2)cc1 | > 26 µM (inactive)
Cc1cc(C(C)(C)CC(C)(C)C)ccc1OCCOCC[N+](C)(C)Cc1ccccc1 | > 26 µM (inactive)
Cc1cc([N+](=O)[O-])c2ccccc2[n+]1[O-] | > 26 µM (inactive)
CCOC(=O)c1cnc(-n2nc(C)cc2C)nc1NCc1ccccc1 | > 26 µM (inactive)

Compound | AC50
O=C(N/N=C\c1cc(Cl)ccc1O)c1ccc(S(=O)(=O)N2CCCCC2)cc1 | > 26 µM (inactive)
COc1ccc(S(=O)(=O)N2CCNCC2)cc1OC | > 26 µM (inactive)
CCCc1sc(N/N=C/c2ccccn2)nc1-c1ccc(Br)cc1 | > 26 µM (inactive)
C/C(=N\NC(=O)c1nnn(-c2nonc2N)c1CN1CCc2ccccc21)c1ccccc1O | > 26 µM (inactive)
CCCC(=O)NC(c1ccc(N(C)C)cc1)c1ccc2cccnc2c1O (configuration not stated) | > 26 µM (inactive)
CC(C)Nc1ccc(Nc2ccnc3cc4ccccc4cc23)cc1 | 3.23 µM
CC(C)(C)Nc1nc(-c2ccccn2)nc2ccccc12 | > 26 µM (inactive)
CN(C)CCCNc1cc(C(C)(C)C)nc2c(-c3ccccc3)cnn12 | > 26 µM (inactive)
CC1=NNC(=O)/C1=C\c1cn(-c2ccccc2)nc1-c1ccccc1 | > 26 µM (inactive)
CCCC(=O)NC(c1cccs1)c1cc(Cl)c2cccnc2c1O (configuration not stated) | > 26 µM (inactive)
Cc1cccc(OCc2n(CC(=O)OC3CC(C)CCC3C(C)C)c3ccccc3[n+]2C)c1 (configuration not stated) | > 26 µM (inactive)
O=C(Nc1ccc(F)cc1)Nc1cc(OCC(F)(F)F)cc(OCC(F)(F)F)c1 | > 26 µM (inactive)
O=C(NCc1cccnc1)/C(=C\c1ccc(-c2ccc(Cl)c(Cl)c2)o1)S(=O)(=O)c1ccccc1 | > 26 µM (inactive)
O=C(CCSc1nc2ccccc2s1)N/N=C/c1c(O)ccc2ccccc12 | > 26 µM (inactive)
Cc1nnc(N/N=C/c2cc([N+](=O)[O-])c(N3CCC(C)CC3)cc2N2CCC(C)CC2)n1N | > 26 µM (inactive)
CCCCCCCCCCOC(=O)Cn1c(COc2cccc(OC)c2)[n+](C)c2ccccc21 | > 26 µM (inactive)
NNC(=S)Nc1ccc(OC(F)(F)F)cc1 | > 26 µM (inactive)
COc1ccc(CNCCC(c2ccc(OC(C)C)cc2)C(C)C)cc1OC (configuration not stated) | > 26 µM (inactive)
COC(=O)C1=C(C)N(Cc2ccccc2)C(=NCc2ccccc2)N[C@H]1c1cccc(C(F)(F)F)c1 | > 26 µM (inactive)

Compound | AC50
CC(=O)Nc1ccc(NC(=O)CN(c2cccc([N+](=O)[O-])c2)S(C)(=O)=O)cc1 | > 26 µM (inactive)
Cc1ccc(C2C(C=Nc3c(C)n(C)n(-c4ccccc4)c3=O)=C(c3ccccc3)Oc3ccccc32)cc1 (configuration not stated) | > 26 µM (inactive)
CCCCc1ccc(N/C(N)=N/c2nc(C)cc(C)n2)cc1 | > 26 µM (inactive)
O=C(c1ccc(F)c(S(=O)(=O)N2CCOCC2)c1)N1CCN(c2ccc(F)cc2)CC1 | > 26 µM (inactive)
O=C(Nc1nc(-c2ccccc2)cs1)c1ccccc1NS(=O)(=O)c1ccc(F)cc1 | > 26 µM (inactive)
COc1cccc2sc(Nc3nc(-c4ccccn4)cs3)nc12 | > 26 µM (inactive)
CC(=O)Oc1ccc(N(C(C)=O)S(=O)(=O)c2cccs2)c2ccccc12 | > 26 µM (inactive)
COc1ccc(-c2c[n+](CC(=O)OC3CC(C)CCC3C(C)C)c3n2CCC3)cc1 (configuration not stated) | > 26 µM (inactive)
O=C(c1ccc([N+](=O)[O-])s1)N1CCN(c2cccc(Cl)c2)CC1 | > 26 µM (inactive)
Cc1ccc2c(c1)Sc1c(ccc3ccccc13)N2 | > 26 µM (inactive)
COc1ccc(Cn2c(-c3ccc(C)cc3)c[n+]3ccccc23)cc1 | > 26 µM (inactive)
CCCCn1c(/C=N/Nc2nc3ccccc3[nH]2)nc2ccccc21 | > 26 µM (inactive)
C=C(C)C(=O)N1CC2(CC(c3cccc(NC(=O)COc4ccc(Cl)cc4)c3)=NO2)C[C@@H]1C(N)=O (some centres not stated) | > 26 µM (inactive)
O=C1/C(=N\S(=O)(=O)c2cccs2)C([n+]2cccc(Cc3ccccc3)c2)=C([O-])c2ccccc21 | > 26 µM (inactive)
Cc1ccccc1NC1=C/C(=N\S(=O)(=O)c2ccc(C(=O)O)cc2)c2ccccc2C1=O | > 26 µM (inactive)
CCC(Sc1nc(C)cc(C)n1)C(=O)NC1=NN=C(c2ccc(C)cc2)CS1 (configuration not stated) | > 26 µM (inactive)
COc1ccc(CCNc2c3ccccc3nc3ccccc23)cc1OC | 4.3 µM
Cc1ccc(C(=O)OCn2ncc(Cl)c(Cl)c2=O)cc1 | > 26 µM (inactive)
COc1ccc(CCNc2ccc(C(CC(N)=O)NC(=O)c3ccc(Br)cc3)cc2[N+](=O)[O-])cc1 (configuration not stated) | > 26 µM (inactive)
